Experimental data: ChEMBL document CHEMBL1949583, “Credneramides A and B: neuromodulatory phenethylamine and isopentylamine derivatives of a vinyl chloride-containing fatty acid from cf. Trichodesmium sp. nov” (J Nat Prod, 2012)

Experiment: Neuromodulatory activity in mouse cerebrocortical neurons assessed as inhibition of calcium oscillation
Format: functional
Conditions: Cerebral cortex neuron

CCC/C(=C\Cl)C/C=C/CCC(=O)O [CREDNERIC ACID]
IC50: 8.2 µM

CCC/C(=C\Cl)C/C=C/CCC(=O)NCCC(C)C [CREDNERAMIDE B]
IC50: 3.9 µM

CCC/C(=C\Cl)C/C=C/CCC(=O)NCCc1ccccc1 [CREDNERAMIDE A]
IC50: 4 µM
